This note sets out measurements from patent US7939332B2, “Detection of analytes in aqueous environments” (Sensors for Medicine and Science, Inc., priority 2000, dated 2011).

This series is described as follows: Solubility. Type of series: physicochemical. Conditions: for solubility in water: H2O.

For `C=C(C)C(=O)NCCCN(Cc1ccccc1B(O)O)Cc1c2ccccc2cc2ccccc12` [9-[[N-methacryloylaminopropyl-N-(o-boronobenzyl)amino]methyl]anthracene], the solubility in water result is “Limited solubility in H2O”. Besides, the “solubility in organic solvents” value (CH2Cl2, CHCl3, THF, CH3OH, C2H5OH) is “soluble in CH2Cl2, CHCl3, THF, CH3OH, and C2H5OH”. For the setting “listed as anthracene derivative of Examples 1 and 2”, the solubility in water result is on record as “insoluble in water”. Also, for the setting “methanol, with respect to observing excimer characteristics”, the solubility in methanol entry is reported as “insufficiently soluble”.
With `C=C(C)C(=O)NCCCN(Cc1ccc(CN(CCCNC(=O)C(=C)C)Cc2ccccc2B2OCC(C)(C)CO2)cc1)Cc1ccccc1B1OCC(C)(C)CO1` [bis boronic acid monomer, α,α′-bis[N-[2-(5,5-dimethyl-1,3,2]dioxaborinan-2-yl)-benzyl]-N-[3-(methacrylamido)propylamino]-1,4-xylene], the maximum solubility (PBS (pH 7.4)) is 1000 µM.
